Data taken from US9670261B2 (Sanofi, priority 2012, dated 2017).
*1 amine or outer side, *2 acyl side, *3 side chain or, on linkers, in order; H or OH if unused. Where a SMILES comes first, the peptide text is derived from it. Side-chain parts run from the residue outwards. [ ]: non-standard residue; d: D form. The star is where a group is joined. γGlu = O=C(O)[C@H](CCC(=O)[*:2])N[*:1]; Stearoyl = CCCCCCCCCCCCCCCCCC(=O)*; Palmitoyl = CCCCCCCCCCCCCCCC(=O)*; Aib = CC(C)(N)C(=O)O

Columns and labels:
[1] = target: T1, human glucagon receptor (Homo sapiens, UniProt P47871); test: cAMP response (HTRF) of HEK-293 cells stably expressing human glucagon receptor; assay type: cell-based; conditions: Table 7; cAMP formation; read-out: EC50 hGLUC R
T1 construct: expressed in transfected cells

[2] = target: T2, human GLP-1 receptor (Homo sapiens, UniProt P43220); test: cAMP response (HTRF) of HEK-293 cells stably expressing human GLP-1 receptor; assay type: cell-based; conditions: Table 7; cAMP formation; read-out: EC50 hGLP-1 R
T2 construct: expressed in transfected cells
Outline: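 Cells grown overnight in DMEM/10% FBS, detached with accutase, resuspended in HBSS with 20 mM HEPES, 0.1% BSA and 2 mM IBMX at 400000 cells/ml. Test compound added and incubated 30 minutes at room temperature; cellular cAMP then measured by HTRF.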

[3] = Solubility testing in buffer (HPLC-UV); conditions: buffer
[4] = Chemical stability in solution, 7 days at 25° C. (% remaining peptide); conditions: % remaining peptide after 7 days at 25° C.
Procedure: After that time course, the sample was centrifuged for 20 min at 4000 rpm and the supernatant was analysed with HPLC-UV. For determination of the amount of the remaining peptide, the peak areas of the target compound at t0 and t7 were compared, resulting in “% remaining peptide”, following the equation % remaining peptide=[(peak area peptide t7)×100]/peak area peptide t0.
The chemical stability is expressed as “% remaining peptide”.

[5] = tested on: non-fasted female diabetic dbdb-mice; test: Glucose lowering in non-fasted female diabetic dbdb-mice; assay type: in vivo; conditions: 3 μg/kg s.c., at 240 min; baseline 20-22 mmol/l
Excerpt: Female diabetic dbdb-mice of mean non-fasted glucose value of 20-22 mmol/l and a body weight of 42 g+/−0.6 g (SEM) were used. Mice were individually marked and were adapted to housing conditions for at least one week.
3-5 days prior to study start mice were assigned to groups and cages (4 mice per cage, 8 per group) according to their non-fasted glucose values to ensure even distribution of lower and higher values between groups (stratification). On the study day, mice were weighed and dosed (t=0). Immediately prior to compound administration feed was removed while water remained available, and a first blood sample at a tail incision was drawn (baseline). Further blood samples were drawn at the tail incision at 30, 60, 90, 120, 240, 360, and 480 min.
Statistical analyses are performed with Everstat Version 6.0 based on SAS by 2-way-ANOVA on repeated measures, followed by Dunnett's post-hoc test against vehicle-control. Differences are considered statistically significant at the p<0.05 level.
Female dbdb-mice, received 3 μg/kg of SEQ ID NO: 14, SEQ ID NO: 21 or phosphate buffered saline (vehicle control) subcutaneously, at time 0 min.

[6] = Pharmacokinetic testing in mice, s.c.; conditions: mouse, plasma, sc, 1 mg/kg
Procedure: Mice were dosed 1 mg/kg subcutaneously (s.c.). The mice were sacrified and blood samples were collected after 0.25, 0.5, 1, 2, 4, 8, 16 and 24 hours post application. Plasma samples were analyzed after protein precipitation via liquid chromatography mass spectrometry (LC/MS). PK parameters and half-life were calculated using WinonLin Version 5.2.1 (non-compartment model).

[7] = tested on: female diet-induced obese (DIO) C57BL/6NCrl mice; test: Body weight in DIO mice, 14 weeks of prefeeding with high-fat diet (method 2); assay type: in vivo
Procedure: Female C57BL/6NCrl mice were housed in groups in a specific pathogen-free barrier facility on a 12 h light/dark cycle with free access to water and high-fat diet. After 14 weeks on high-fat diet, mice were stratified to treatment groups (n=8), so that each group had similar mean body weight.
An aged-matched group with ad libitum access to standard chow and water was included as standard control group.
Before the experiment, mice were subcutaneously (s.c.) injected with vehicle solution and weighed for 3 days to acclimate them to the procedures.
Body weight was recorded daily.
Statistical analyses were performed with Everstat 6.0 by repeated measures two-way ANOVA and Dunnett's post-hoc analyses (glucose profile) and 1-way-ANOVA, followed by Dunnett's post-hoc test (body weight, body fat). Differences versus vehicle-treated DIO control mice were considered statistically significant at the p<0.05 level.
Female obese C57BL/6NCrl mice were treated for 3 weeks once daily subcutaneously in the late afternoon, prior the end of the light phase (12 h lights on) with 10 μg/kg SEQ ID NO: 9 and SEQ ID NO: 21 or vehicle. Body weight was recorded daily.

[8] = tested on: female diabetic dbdb-mice; test: Glucose, HbA1c and oral glucose tolerance in diabetic dbdb-mice, chronic treatment (method 4); assay type: in vivo
Procedure: 8 week old, female diabetic dbdb-mice of mean non-fasted glucose value of 14.5 mmol/l and a body weight of 37-40 g were used. Mice were individually marked and were adapted to housing conditions for at least one week.
7 days prior to study start, baseline values for non-fasted glucose and HbA1c were determined, 5 days prior to study start, mice were assigned to groups and cages (5 mice per cage, 10 per group) according to their HbA1c values to ensure even distribution of lower and higher values between groups (stratification).
Mice were treated for 4 weeks, by once daily subcutaneous administration 3 hours prior to the dark phase (6 pm to 6 am). Blood samples from a tail tip incision were obtained for HbA1c on study day 21 and oral glucose tolerance was assessed in the 4th week. Oral glucose tolerance test was done in the morning without prior extra compound administration to majorly assess the effect of chronic treatment and less of acute compound administration. Mice were fasted for 4 hours prior to oral glucose administration (2 g/kg, t=0 min). Blood samples were drawn prior to glucose administration and at 15, 30, 60, 90, 120, and 180 min thereafter. Feed was returned after the last blood sampling. Results are represented as change from baseline, glucose in mmol/l and HbA1c in %.
Statistical analyses are performed with Everstat Version 6.0 based on SAS by 1-way-ANOVA, followed by Dunnett's post-hoc test against vehicle-control. Differences are considered statistically significant at the p<0.05 level.
Female dbdb-mice, received 3 and 10 μg/kg of SEQ ID NO: 16 and 10 μg/kg of SEQ ID NO: 21 or phosphate buffered saline (vehicle control) once daily, subcutaneously over four weeks.

[9] = Pharmacokinetic testing in Göttinger minipigs, s.c.; assay type: in vivo; conditions: female, minipig, plasma, sc, Mini pigs, 0.1 mg/kg s.c.
Procedure: Female Göttinger minipigs were dosed 0.1 mg/kg subcutaneously (s.c.). Blood samples were collected after 0.25, 0.5, 1, 2, 4, 8, 24, 32, 48, 56 and 72 hours post application. Plasma samples were analyzed after protein precipitation via liquid chromatography mass spectrometry (LC/MS). PK parameters and half-life were calculated using WinonLin Version 5.2.1 (non-compartment model).

[10] = target: T3, human GIP receptor (Homo sapiens, UniProt P48546); test: cAMP response (HTRF) of HEK-293 cells stably expressing human GIP receptor; assay type: cell-based; conditions: Table 7; cAMP formation; read-out: EC50 hGIP R
T3 construct: expressed in transfected cells
T3 sequence (P48546 22-466): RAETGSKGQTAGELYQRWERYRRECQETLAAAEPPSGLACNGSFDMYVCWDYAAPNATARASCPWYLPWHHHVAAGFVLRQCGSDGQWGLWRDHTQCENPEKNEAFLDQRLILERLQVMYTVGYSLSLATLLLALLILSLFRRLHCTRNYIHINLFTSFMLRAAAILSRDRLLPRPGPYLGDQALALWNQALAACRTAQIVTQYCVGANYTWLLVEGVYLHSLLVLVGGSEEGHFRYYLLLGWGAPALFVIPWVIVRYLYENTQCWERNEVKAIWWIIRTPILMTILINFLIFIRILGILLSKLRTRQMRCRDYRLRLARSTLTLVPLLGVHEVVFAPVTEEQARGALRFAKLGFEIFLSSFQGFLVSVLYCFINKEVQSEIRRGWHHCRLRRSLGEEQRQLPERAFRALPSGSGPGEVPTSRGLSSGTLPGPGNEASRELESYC
Procedure: cAMP content of cells was determined using a kit from Cisbio Corp. (cat. no. 62AM4PEC) based on HTRF (Homogenous Time Resolved Fluorescence). For preparation, cells were split into T175 culture flasks and grown overnight to near confluency in medium (DMEM/10% FBS). Medium was then removed and cells washed with PBS lacking calcium and magnesium, followed by proteinase treatment with accutase (Sigma-Aldrich cat. no. A6964). Detached cells were washed and resuspended in assay buffer (1×HBSS; 20 mM HEPES, 0.1% BSA, 2 mM IBMX) and cellular density determined. They were then diluted to 400000 cells/ml and 25 μl-aliquots dispensed into the wells of 96-well plates. For measurement, 25 μl of test compound in assay buffer was added to the wells, followed by incubation for 30 minutes at room temperature.

T2 sequence (P43220 24-463): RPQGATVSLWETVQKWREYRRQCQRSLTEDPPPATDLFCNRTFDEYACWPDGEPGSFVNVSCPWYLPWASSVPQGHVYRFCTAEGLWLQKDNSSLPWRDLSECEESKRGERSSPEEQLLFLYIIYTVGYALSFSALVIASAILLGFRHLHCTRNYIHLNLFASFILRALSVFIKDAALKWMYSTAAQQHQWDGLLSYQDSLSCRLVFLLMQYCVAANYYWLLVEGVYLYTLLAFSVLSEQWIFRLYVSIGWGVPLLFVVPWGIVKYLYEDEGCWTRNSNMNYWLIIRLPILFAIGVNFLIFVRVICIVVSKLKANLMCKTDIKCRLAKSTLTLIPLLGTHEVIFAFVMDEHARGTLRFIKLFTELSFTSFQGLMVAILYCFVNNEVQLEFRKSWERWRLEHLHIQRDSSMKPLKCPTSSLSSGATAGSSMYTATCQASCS
T1 sequence (P47871 26-477): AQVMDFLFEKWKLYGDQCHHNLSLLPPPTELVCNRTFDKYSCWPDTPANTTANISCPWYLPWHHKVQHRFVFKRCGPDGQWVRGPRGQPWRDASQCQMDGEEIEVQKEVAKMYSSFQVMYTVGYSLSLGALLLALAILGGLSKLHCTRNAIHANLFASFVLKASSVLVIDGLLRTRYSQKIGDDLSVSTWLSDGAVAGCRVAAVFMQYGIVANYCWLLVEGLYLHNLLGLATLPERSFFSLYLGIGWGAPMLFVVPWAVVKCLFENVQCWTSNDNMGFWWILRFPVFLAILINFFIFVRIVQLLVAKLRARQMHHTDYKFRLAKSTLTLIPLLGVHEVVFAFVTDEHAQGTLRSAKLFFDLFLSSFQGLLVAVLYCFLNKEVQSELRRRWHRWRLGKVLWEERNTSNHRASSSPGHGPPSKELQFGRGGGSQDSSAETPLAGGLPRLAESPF

CCCCCCCCCCCCCCCC(=O)N[C@@H](CCC(=O)NCCCC[C@H](NC(=O)[C@H](CCC(N)=O)NC(=O)[C@@H](NC(=O)[C@H](CO)NC(=O)[C@H](CC(C)C)NC(=O)[C@H](CC(=O)O)NC(=O)[C@H](CO)NC(=O)[C@@H](NC(=O)[C@H](Cc1ccccc1)NC(=O)[C@@H](NC(=O)CNC(=O)[C@H](CCC(=O)O)NC(=O)C(C)(C)NC(=O)[C@@H](N)Cc1ccc(O)cc1)[C@@H](C)O)[C@@H](C)O)[C@@H](C)CC)C(=O)N[C@@H](CC(=O)O)C(=O)N[C@@H](CO)C(=O)N[C@@H](CCCNC(=N)N)C(=O)N[C@@H](C)C(=O)N[C@@H](C)C(=O)N[C@@H](CCC(N)=O)C(=O)N[C@@H](CC(=O)O)C(=O)N[C@@H](Cc1ccccc1)C(=O)N[C@H](C(=O)N[C@@H](CCC(=O)O)C(=O)N[C@@H](Cc1c[nH]c2ccccc12)C(=O)N[C@@H](CC(C)C)C(=O)N[C@@H](CCCCN)C(=O)N[C@@H](C)C(=O)NCC(=O)NCC(=O)N1CCC[C@H]1C(=O)N[C@@H](CO)C(=O)N[C@@H](CO)C(=O)NCC(=O)N[C@@H](C)C(=O)N1CCC[C@H]1C(=O)N1CCC[C@H]1C(=O)N1CCC[C@H]1C(=O)N[C@@H](CO)C(N)=O)[C@@H](C)CC)C(=O)O [SEQ ID NO: 22, Y-Aib-E-G-T-F-T-S-D-L-S-I-Q-K(γE-x53)-DSRAAQDFIEWLKAGGPSSGAPPPS-NH2] (H-Y[Aib]EGTFTSDLSIQK([γGlu-Palmitoyl])DSRAAQDFIEWLKAGGPSSGAPPPS-NH2)
EC50 [1]: 11600 pM

CCCCCCCCCCCCCCCCCC(=O)N[C@@H](CCC(=O)NCCCC[C@H](NC(=O)[C@H](CCC(N)=O)NC(=O)[C@@H](NC(=O)[C@H](CO)NC(=O)[C@H](CC(C)C)NC(=O)[C@H](CC(=O)O)NC(=O)[C@H](CO)NC(=O)[C@@H](NC(=O)[C@H](Cc1ccccc1)NC(=O)[C@@H](NC(=O)CNC(=O)[C@H](CCC(=O)O)NC(=O)C(C)(C)NC(=O)[C@@H](N)Cc1ccc(O)cc1)[C@@H](C)O)[C@@H](C)O)[C@@H](C)CC)C(=O)N[C@@H](CCC(=O)O)C(=O)N[C@@H](CCCCN)C(=O)N[C@@H](CCCNC(=N)N)C(=O)N[C@@H](C)C(=O)N[C@@H](C)C(=O)N[C@@H](CCC(N)=O)C(=O)N[C@@H](CCC(=O)O)C(=O)N[C@@H](Cc1ccccc1)C(=O)N[C@H](C(=O)N[C@@H](CCC(=O)O)C(=O)N[C@@H](Cc1c[nH]c2ccccc12)C(=O)N[C@@H](CC(C)C)C(=O)N[C@@H](CCCCN)C(=O)N[C@@H](C)C(=O)NCC(=O)NCC(=O)N1CCC[C@H]1C(=O)N[C@@H](CO)C(=O)N[C@@H](CO)C(=O)NCC(=O)N[C@@H](C)C(=O)N1CCC[C@H]1C(=O)N1CCC[C@H]1C(=O)N1CCC[C@H]1C(=O)N[C@@H](CO)C(N)=O)[C@@H](C)CC)C(=O)O [SEQ ID NO: 14, Y-Aib-E-G-T-F-T-S-D-L-S-I-Q-K(γE-x70)-EKRAAQEFIEWLKAGGPSSGAPPPS-NH2] (H-Y[Aib]EGTFTSDLSIQK([γGlu-Stearoyl])EKRAAQEFIEWLKAGGPSSGAPPPS-NH2)
EC50 [2]: 4.3 pM
solubility at 2 h ([3]; pH 4.5): > 1000 µg/mL
solubility at 2 h ([3]; pH 7.4): > 1000 µg/mL
Stability (pH 4.5) ([4]; pH 4.5): 96.0%
Stability (pH 7.4) ([4]; pH 7.4): 94.0%
maximal effect on glucose, change from baseline [5]: -8 mmol/L
Cmax [6]: 5340 ng/mL
half-life [6]: 2.8 h

CCCCCCCCCCCCCCCCCC(=O)N[C@@H](CCC(=O)NCCCC[C@H](NC(=O)[C@H](CCC(N)=O)NC(=O)[C@@H](NC(=O)[C@H](CO)NC(=O)[C@H](CC(C)C)NC(=O)[C@H](CC(=O)O)NC(=O)[C@H](CO)NC(=O)[C@@H](NC(=O)[C@H](Cc1ccccc1)NC(=O)[C@@H](NC(=O)CNC(=O)[C@H](CCC(=O)O)NC(=O)C(C)(C)NC(=O)[C@@H](N)Cc1ccc(O)cc1)[C@@H](C)O)[C@@H](C)O)[C@@H](C)CC)C(=O)N[C@@H](CCC(=O)O)C(=O)N[C@@H](CO)C(=O)N[C@@H](CCCNC(=N)N)C(=O)N[C@@H](C)C(=O)N[C@@H](C)C(=O)N[C@@H](CCC(N)=O)C(=O)N[C@@H](CCC(=O)O)C(=O)N[C@@H](Cc1ccccc1)C(=O)N[C@H](C(=O)N[C@@H](CCC(=O)O)C(=O)N[C@@H](Cc1c[nH]c2ccccc12)C(=O)N[C@@H](CC(C)C)C(=O)N[C@@H](CCCCN)C(=O)N[C@@H](C)C(=O)NCC(=O)NCC(=O)N1CCC[C@H]1C(=O)N[C@@H](CO)C(=O)N[C@@H](CO)C(=O)NCC(=O)N[C@@H](C)C(=O)N1CCC[C@H]1C(=O)N1CCC[C@H]1C(=O)N1CCC[C@H]1C(=O)N[C@@H](CO)C(N)=O)[C@@H](C)CC)C(=O)O [SEQ ID NO: 21, Y-Aib-E-G-T-F-T-S-D-L-S-I-Q-K(γE-x70)-ESRAAQEFIEWLKAGGPSSGAPPPS-NH2] (H-Y[Aib]EGTFTSDLSIQK([γGlu-Stearoyl])ESRAAQEFIEWLKAGGPSSGAPPPS-NH2)
decrease of body weight, relative change from baseline ([7]; 10 μg/kg s.c. once daily, 3 weeks): ≤ 18.0%
Overall weight change ([7]; 10 μg/kg, 3-week treatment, mean ± SEM): -7.3 ± 0.7 g
oral glucose tolerance ([8]; once daily s.c., oral glucose 2 g/kg in the 4th week): improved oral glucose tolerance
reduction of AUC under the glucose curve compared to vehicle control ([8]; oral glucose tolerance test, p<0.05): reached statistical significance
Cmax [9]: 479 ng/mL
half-life [9]: 19.1 h
EC50 [10]: 6.4 pM
maximal effect, glucose reduction [5]: 10 to 12 mmol/L
Cmax [6]: 5050 ng/mL
half-life [6]: 4 h
